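Cultured in 96-well plates, cells were exposed to test compound for 48 hours across five concentrations. Abbreviation: GI50, concentration required for 50% inhibition of growth. The concentration for full growth arrest is given as TGI.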
Experiments:
Assay in all cases: growth of human tumour cells (NCI), 48 h
A549 NSCLC = system: A549 NSCLC
HL-60(TB) leukemia = system: HL-60(TB) leukemia
KM12 colon = system: KM12 colon
NCI-H23 lung = system: NCI-H23 lung
NCI-H460 lung = system: NCI-H460 lung
NCI-H522 lung = system: NCI-H522 lung
SF-268 CNS = system: SF-268 CNS
SF-539 CNS = system: SF-539 CNS
SNB-19 CNS = system: SNB-19 CNS
SW-620 colon = system: SW-620 colon

## CC(C)(C)[Si](OC1CC(n2cnc3c(N)ncnc32)OC1CO)(c1ccccc1)c1ccccc1 (stereo not given)
A549 NSCLC
  TGI: 30 µM
HL-60(TB) leukemia
  TGI: > 100 µM
KM12 colon
  TGI: 38.9 µM
NCI-H23 lung
  TGI: 28 µM
NCI-H460 lung
  TGI: 30.7 µM
NCI-H522 lung
  TGI: 30 µM
SF-268 CNS
  TGI: 35 µM
SF-539 CNS
  TGI: 36.7 µM
SNB-19 CNS
  TGI: 50 µM
SW-620 colon
  TGI: 34.1 µM

## O=C1C(Cl)N(c2ccc(Cl)cc2)C1c1c[nH]c2ccccc12 (stereo not given)
A549 NSCLC
  TGI: > 100 µM
HL-60(TB) leukemia
  TGI: 44.5 µM
KM12 colon
  TGI: > 100 µM
NCI-H23 lung
  TGI: 62.8 µM
NCI-H460 lung
  TGI: 30.1 µM
NCI-H522 lung
  TGI: 39 µM
SF-268 CNS
  TGI: > 100 µM
SF-539 CNS
  TGI: 37.2 µM
SNB-19 CNS
  TGI: > 100 µM
SW-620 colon
  TGI: 68.8 µM

## COc1ccc(N2C(=O)/C(=C(\C)c3cc4ccccc4oc3=O)N=C2c2cc([N+](=O)[O-])ccc2Cl)cc1
A549 NSCLC
  TGI: > 100 µM
HL-60(TB) leukemia
  TGI: 70.8 µM
KM12 colon
  TGI: 87.4 µM
NCI-H23 lung
  TGI: > 100 µM
NCI-H460 lung
  TGI: > 100 µM
NCI-H522 lung
  TGI: 39.1 µM
SF-268 CNS
  TGI: > 100 µM
SF-539 CNS
  TGI: > 100 µM
SNB-19 CNS
  TGI: > 100 µM
SW-620 colon
  TGI: > 100 µM

## O=C(O)c1ccc(Nc2c3ccccc3nc3ccccc23)cc1
A549 NSCLC
  TGI: > 100 µM
HL-60(TB) leukemia
  TGI: > 100 µM
KM12 colon
  TGI: > 100 µM
NCI-H23 lung
  TGI: > 100 µM
NCI-H460 lung
  TGI: > 100 µM
NCI-H522 lung
  TGI: > 100 µM
SF-268 CNS
  TGI: > 100 µM
SF-539 CNS
  TGI: > 100 µM
SNB-19 CNS
  TGI: > 100 µM
SW-620 colon
  TGI: > 100 µM

## CN(C)CCCNC(=O)c1cc2[nH]c3c(cnc4ccc([N+](=O)[O-])cc43)c(=O)c2n1C
A549 NSCLC
  GI50: 17.9 µM
  TGI: 32.1 µM
HL-60(TB) leukemia
  GI50: 12.2 µM
  TGI: 34.4 µM
KM12 colon
  GI50: 12 µM
  TGI: 25.2 µM
NCI-H23 lung
  GI50: 20.5 µM
  TGI: 44.1 µM
NCI-H460 lung
  GI50: 13.3 µM
  TGI: 26 µM
NCI-H522 lung
  GI50: 17.4 µM
  TGI: 32.1 µM
SF-268 CNS
  GI50: 15.9 µM
  TGI: 29.4 µM
SF-539 CNS
  GI50: 17.6 µM
  TGI: 31.7 µM
SNB-19 CNS
  GI50: 17.7 µM
  TGI: 33.6 µM
SW-620 colon
  GI50: 17.4 µM
  TGI: 34.5 µM

## Cc1cc(C)n(C(=C(C(Cl)=C(Cl)Cl)[N+](=O)[O-])n2nc(C)cc2C)n1
A549 NSCLC
  TGI: 11.4 µM
HL-60(TB) leukemia
  TGI: 3.92 µM
KM12 colon
  TGI: 13.9 µM
NCI-H23 lung
  TGI: 12.8 µM
NCI-H460 lung
  TGI: 12.7 µM
NCI-H522 lung
  TGI: 6.74 µM
SF-268 CNS
  TGI: 16.7 µM
SF-539 CNS
  TGI: 16.4 µM
SNB-19 CNS
  TGI: 16.2 µM
SW-620 colon
  TGI: 18.2 µM
